Data as given in US20170217976A1, “6-(AMINO ACID)-MORPHINAN DERIVATIVES IN COMBINATION WITH PERMEATION […] FOR USE AS AN ORALLY, […], TRA[…] NASALLY AD[…]” (C[…], priority 2014, published 2017).
Like-named read-outs stand apart in the source and are kept apart here.

What was measured:
human MOR = target: T1, human MOR (Homo sapiens, UniProt P35372); assay: biochemical; assay type: biochemical; conditions: for Emax: read-out: [35S]GTPγS binding, MOR % stim.
T1 construct: expressed in transfected cells; host or cells: CHO cells
T1 sequence (P35372 whole entry): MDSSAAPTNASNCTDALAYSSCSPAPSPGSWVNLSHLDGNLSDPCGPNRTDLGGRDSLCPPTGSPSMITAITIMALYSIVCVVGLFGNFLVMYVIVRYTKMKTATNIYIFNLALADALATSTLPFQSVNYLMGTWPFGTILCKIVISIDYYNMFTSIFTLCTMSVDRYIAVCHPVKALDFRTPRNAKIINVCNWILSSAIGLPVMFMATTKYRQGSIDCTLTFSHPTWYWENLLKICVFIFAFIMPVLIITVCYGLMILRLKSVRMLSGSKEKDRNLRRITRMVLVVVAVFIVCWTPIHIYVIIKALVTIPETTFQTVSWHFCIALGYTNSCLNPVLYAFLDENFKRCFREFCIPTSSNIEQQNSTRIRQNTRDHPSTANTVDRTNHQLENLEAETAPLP
Method: A number of compounds were evaluated for agonist potency and efficacy at the MOR using the [^35S]GTPγS functional assay in CHO cells expressing human MOR receptors.

MOR = target: T2, MOR (Rattus norvegicus, UniProt P33535); assay: Opioid receptor binding, MOR, rat brain membranes
T2 construct: from tissue
T2 sequence (P33535 whole entry): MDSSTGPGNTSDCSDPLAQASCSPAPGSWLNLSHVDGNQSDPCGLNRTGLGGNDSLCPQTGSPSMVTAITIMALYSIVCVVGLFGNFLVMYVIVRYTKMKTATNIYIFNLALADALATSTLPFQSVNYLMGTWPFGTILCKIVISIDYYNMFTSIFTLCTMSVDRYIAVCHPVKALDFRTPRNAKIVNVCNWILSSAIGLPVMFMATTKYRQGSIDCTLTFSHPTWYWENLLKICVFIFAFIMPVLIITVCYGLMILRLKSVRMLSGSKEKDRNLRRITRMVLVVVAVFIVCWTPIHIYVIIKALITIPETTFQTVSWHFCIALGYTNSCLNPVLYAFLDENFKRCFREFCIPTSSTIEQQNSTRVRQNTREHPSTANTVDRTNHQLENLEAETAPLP

DOR = target: T3, DOR (Rattus norvegicus, UniProt P33533); assay: Opioid receptor binding, DOR, rat brain membranes
T3 construct: from tissue
T3 sequence (P33533 whole entry): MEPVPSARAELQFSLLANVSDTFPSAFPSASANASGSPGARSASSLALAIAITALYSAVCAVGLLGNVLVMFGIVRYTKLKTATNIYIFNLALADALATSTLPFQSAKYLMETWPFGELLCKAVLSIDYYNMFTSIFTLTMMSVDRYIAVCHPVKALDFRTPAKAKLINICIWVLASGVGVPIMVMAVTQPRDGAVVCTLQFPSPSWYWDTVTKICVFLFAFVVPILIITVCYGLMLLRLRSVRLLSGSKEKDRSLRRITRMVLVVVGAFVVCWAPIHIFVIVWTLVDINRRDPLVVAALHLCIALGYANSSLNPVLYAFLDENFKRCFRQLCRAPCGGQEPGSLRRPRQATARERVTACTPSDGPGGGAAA

KOR = target: T4, KOR (Cavia porcellus, UniProt P41144); assay: Opioid receptor binding, KOR, guinea pig brain membranes
T4 construct: from tissue
T4 sequence (P41144 whole entry): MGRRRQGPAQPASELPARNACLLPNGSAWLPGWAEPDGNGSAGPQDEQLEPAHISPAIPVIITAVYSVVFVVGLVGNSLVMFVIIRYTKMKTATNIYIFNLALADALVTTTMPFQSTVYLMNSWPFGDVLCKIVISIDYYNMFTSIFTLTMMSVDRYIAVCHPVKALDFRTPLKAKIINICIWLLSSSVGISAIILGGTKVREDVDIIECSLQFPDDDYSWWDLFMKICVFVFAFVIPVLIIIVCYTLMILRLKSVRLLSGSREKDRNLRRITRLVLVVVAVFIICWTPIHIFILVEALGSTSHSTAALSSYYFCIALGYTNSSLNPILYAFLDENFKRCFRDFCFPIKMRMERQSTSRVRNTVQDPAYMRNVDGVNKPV

[1] = pH-metric determination of pKa, logP and logD in octanol/water (PCA200/Cheqsol); assay type: physicochemical; conditions: octanol/water, 25° C.
Method: All titrations were performed in 0.15M KCl solution under argon gas. The pKa was determined by the shape of the titration curve and partition coefficients were determined by the shift in titration curve of pKa in the presence of octanol. The analysis of pH-metric data was performed by RefinementPro software (version 2.0, Sirius, Sussex, UK).

[2] = target: T5, human MOP expressed in CHO cells (Homo sapiens, UniProt P35372); assay: [35S]GTPγS binding, antagonism at MOR (Ke against DAMGO); assay type: biochemical; conditions: for Kb: Table 1-6, antagonist Ke measured against DAMGO
T5 construct: expressed in transfected cells; host or cells: CHO cells (per the unit's head)
T5 sequence (P35372 whole entry): as the sequence (P35372 whole entry) above

[3] = tested on: mouse vas deferens preparation; assay: Mouse vas deferens bioassay; conditions: for IC50: read-out: IC50, agonist potency in mouse vas deferens
Method: The mouse vas deferens bioassay was performed as described in: M. Spetea et al., Eur. J. Pharmacol. 2004, 483, 301-308

rats = assay: Tail-flick test in rats after oral administration; assay type: in vivo, rat; conditions: for ED50: Rattus norvegicus, po
Method: The rat tail-flick test was performed as described in: S. Furst et. al. J. Pharmacol. Exp. Ther. 2005, 312, 609-618

[4] = Table 1-4, human MOP expressed in CHO cells, read-out: [35S]GTPγS binding, MOR EC50
[5] = Table 1-4, measured against DAMGO
[6] = Binding Ki (nM) MOR, in vitro binding assay, rat brain membranes
[7] = Binding Ki MOR, Table 1-4, rat brain membranes
[8] = Binding Ki (nM) DOR, in vitro binding assay, rat brain membranes
[9] = Binding Ki DOR, Table 1-4, rat brain membranes
[10] = Binding Ki (nM) KOR, in vitro binding assay, guinea pig brain membranes
[11] = Binding Ki KOR, Table 1-4, guinea pig brain membranes
[12] = Binding Ki MOR, Table 1-6, rat brain membranes
[13] = Binding Ki MOR, Table 2-6, rat brain membranes
[14] = Binding Ki DOR, Table 1-6, rat brain membranes
[15] = Binding Ki DOR, Table 2-6, rat brain membranes
[16] = Binding Ki KOR, Table 1-6, guinea pig brain membranes
[17] = Binding Ki KOR, Table 2-6, guinea pig brain membranes

Compound | Ki (MOR; [6]) | Ki (DOR; [8]) | Ki (KOR; [10]) | Ki (MOR; [12]) | Ki (MOR; [13]) | Ki (DOR; [14]) | Ki (DOR; [15]) | Ki (KOR; [16]) | Ki (KOR; [17]) | EC50 [2] | Kb ([2]; [35S]GTPγS binding, MOR Ke) | other results
CO[C@@]12CC[C@H](N[C@@H](CC(N)=O)C(=O)O)[C@@H]3Oc4c(O)ccc5c4[C@@]31CCN(C)[C@@H]2C5 [Compound 26] | 1.17 nM | 3.37 nM | 74 nM |  |  |  |  |  |  |  |  | EC50 (human MOR; [4]): 0.64 nM; Emax (human MOR; [5]): 109%; Ki (MOR; [7]): 1.17 nM; Ki (DOR; [9]): 3.37 nM; Ki (KOR; [11]): 74 nM
CO[C@@]12CC[C@@H](N[C@H](C(=O)O)[C@@H](C)O)[C@@H]3Oc4c(O)ccc5c4[C@@]31CCN(C)[C@@H]2C5 [Compound 35] | 0.79 nM | 5.16 nM | 58.6 nM |  |  |  |  |  |  |  |  | Ki (MOR; [7]): 0.79 nM; logP [1]: -1.38; Ki (DOR; [9]): 5.16 nM; Ki (KOR; [11]): 58.6 nM
CO[C@@]12CCC(=O)[C@@H]3Oc4c(O)ccc5c4[C@@]31CCN(CC1CC1)[C@@H]2C5 [Compound 14-OMe-NTX, 14-O-Methylnaltrexone, reference compound] |  |  |  | 0.46 nM | 0.46 nM | 7.88 nM | 7.88 nM | 1.17 nM | 1.17 nM | > 10000 nM | 0.49 nM | 
O=C(O)C(Cc1ccccc1)NC1CCC2(O)C3Cc4ccc(O)c5c4C2(CCN3CC2CC2)C1O5 (single isomer, unassigned) [Compound 60] |  |  |  | 1.83 nM | 1.83 nM | 2.79 nM | 2.79 nM | 8.99 nM | 8.99 nM |  | 0.24 nM | EC50 ([2]; read-out: [35S]GTPγS binding, MOR EC50, Table 1-6, stimulation of [35S]GTPγS binding): > 10000 nM
CCOC(=O)CN[C@@H]1CC[C@@]2(OC)[C@H]3Cc4ccc(O)c5c4[C@@]2(CCN3C)[C@H]1O5 [HS731-Et ester] | 0.74 nM | 0.81 nM | 21.9 nM |  |  |  |  |  |  |  |  | IC50 ([3]; Mus musculus): 23.8 nM; times less potent than HS731 in mouse vas deferens bioassay ([3]; relative to HS731): about 3.5; ED50 (rats; 0.5 h, read-out: ED50 (p.o., mg/kg) 30 min, 30 min): > 2.5 mg/kg; ED50 (rats; read-out: ED50 (p.o., mg/kg) 1 h, 1 h): 2.34 mg/kg; ED50 (rats; read-out: ED50 (p.o., mg/kg) 2 h, 2 h): 0.85 mg/kg; ED50 (rats; read-out: ED50 (p.o., mg/kg) 3 h, 3 h): 0.71 mg/kg; ED50 (rats; read-out: ED50 (p.o., mg/kg) 4 h, 4 h): 0.82 mg/kg; antinociceptive potency, fold higher than HS731 after 1 h (rats; p.o., 1 h, relative to HS731): ca. 2 fold; antinociceptive potency, fold higher than HS731 after 2 h (rats; p.o., 2 h, relative to HS731): ca. 8 fold; antinociceptive potency, fold higher than HS731 after 3 h (rats; p.o., 3 h, relative to HS731): ca. 9 fold
CO[C@@]12CC[C@@H](NCCCC(=O)O)[C@@H]3Oc4c(O)ccc5c4[C@@]31CCN(CC1CC1)[C@@H]2C5 [Compound 66] |  |  |  | 3.36 nM | 3.36 nM | 10.2 nM | 10.2 nM | 16.8 nM | 16.8 nM | > 10000 nM |  | Kb ([2]; read-out: [35S]GTPγS binding, MOR Ke): 1.06 nM
CO[C@@]12CC[C@H](N[C@@H](CO)C(=O)O)[C@@H]3Oc4c(O)ccc5c4[C@@]31CCN(C)[C@@H]2C5 [Compound 36] | 2.21 nM | 5.32 nM | 196 nM |  |  |  |  |  |  |  |  | EC50 (human MOR): 1.21 nM; Emax (human MOR): 96%; Ki (MOR; [7]): 2.21 nM; Ki (DOR; [9]): 5.32 nM; Ki (KOR; [11]): 196 nM
CO[C@@]12CC[C@@H](NCCC(=O)O)[C@@H]3Oc4c(O)ccc5c4[C@@]31CCN(CC1CC1)[C@@H]2C5 [Compound 64] |  |  |  | 1.51 nM | 1.51 nM | 8.12 nM | 8.12 nM | 11.7 nM | 11.7 nM | > 10000 nM | 0.96 nM | 
CO[C@@]12CC[C@@H](N[C@@H](CC(=O)O)C(=O)O)[C@@H]3Oc4c(O)ccc5c4[C@@]31CCN(C)[C@@H]2C5 [Compound 45] |  |  |  |  |  |  |  |  |  |  |  | logP [1]: -2.2
CO[C@@]12CCC(=O)[C@@H]3Oc4c(O)ccc5c4[C@@]31CCN(C)[C@@H]2C5 [Compound 14-OMO, 14-O-methyloxymorphone, reference compound] |  |  |  |  |  |  |  |  |  |  |  | EC50 (human MOR; [4]): 1.17 nM; [35S]GTPγS binding, MOR % stim. (human MOR; [5]): 127%; Ki (MOR; Table 1-4, rat brain membranes, read-out: Binding Ki MOR): 0.1 nM; Ki (MOR; in vitro binding assay, rat brain membranes, read-out: Binding Ki (nM) MOR): 0.1 nM; Ki (DOR; Table 1-4, rat brain membranes, read-out: Binding Ki DOR): 4.8 nM; Ki (DOR; in vitro binding assay, rat brain membranes, read-out: Binding Ki (nM) DOR): 4.8 nM; IC50 [3]: 7.76 nM
CO[C@@]12CC[C@@H](NCC(=O)O)[C@@H]3Oc4c(O)ccc5c4[C@@]31CCN(CC1CC1)[C@@H]2C5 [Compound 62] |  |  |  | 1.31 nM | 1.31 nM | 4.76 nM | 4.76 nM | 9.31 nM | 9.31 nM | > 10000 nM | 0.19 nM | 
